Laboratory results from publication PMC7335050, “Characterization of an alternative BAK-binding site for BH3 peptides” (Nature Communications, 2020).
“And” between values parts separate entries of the source, which are not always exact repeats. Identical values can stand only once. “Also recorded” adds a separate entry of the source. Residues, ends and D or L forms follow the SMILES beside them.

How the values were obtained:
BAK (His6-BAKΔTM) = test: Liposome permeabilization assay (FITC-dextran release) with BAK; type: biochemical, human; conditions: 50 nM BAK + 50 nM BH3 peptide
Protocol: (§1) 1-Palmitoyl-2-oleoyl-sn-glycero-3-phosphocholine, 1-plamitoyl-2-oleoyl-sn-glycero-3-phosphoethanolamine, L-α-phosphatidyl-inositol, cardiolipin, cholesterol and 18:1 DGS-NTA(Ni) were mixed at a weight ratio of 36:22:9:8:20:5, and dried as thin films in glass test tubes under nitrogen for 16 h. To encapsulate FITC-labeled dextran 10 (F-d10), 50 mg F-d10 was added to 50 mg lipid in 1 ml of 150 KCl buffer containing 20 mM HEPES (pH 7.0), sonicated and extruded 15 times through a 400 nm polycarbonate membrane. Liposomes with F-d10 were further purified by gel filtration on Sephacryl S-300 HR (GE Healthcare). Phosphate was determined by colorimetric assay (Abcam, Cambridge, UK).
(§2) Release of F-d10 from large unilamellar vesicles (LUVs) was monitored by fluorescence dequenching[25] using a fluorimetric plate reader (Thermo Scientific) with SoftMax Pro software. After addition of purified His6-BAKΔTM and/or the BH3 peptides to LUVs (final lipid concentration 10 µg ml^−1), 96 well plates were incubated at 37 °C and recorded (excitation 485 nm, emission 538 nm) every 10 sec. FITC-labeled dextran release was calculated using the equation ((Fsample − Fblank)/(FTriton − Fblank) × 100%), where Fsample, Fblank, and FTriton are the fluorescence recorded for the reagent-, buffer-, and 1% Triton-treated LUVs, respectively.

human BAKΔTM = test: Cytochrome c release from mitochondria of Bak−/−Bax−/− MEFs plus purified human BAKΔTM; type: biochemical; conditions: 2 μM His6-BAKΔTM, 5 μM BH3 peptide, 25 °C, 90 min, immunoblotting
Protocol: (§3) Mitochondria[43] purified from Bax^−/− MEFs were incubated with the indicated concentrations of navitoclax, S63845 or BH3 peptides at 25 °C for 90 min. After centrifugation (10,000 g, 15 min) and washing, supernatants and pellets were analyzed by immunoblotting. Alternatively, His6-BAKΔTM was dialyzed against mitochondria (mito) buffer (150 mM KCl, 5 mM MgCl2, 1 mM EGTA, 25 mM HEPES, pH 7.5) and diluted into mito buffer with 5 mM DTT. Mitochondria purified from Bak^−/−Bax^−/− MEFs were then incubated with 2 μM His6-BAKΔTM and the indicated BH3 peptides (5 μM) at 25 °C for 90 min. After centrifugation (10,000 × g, 15 min) and washing, supernatants and pellets were analyzed by immunoblotting.

BAK H164A/H165A = conditions: SPR, ~4000 RU immobilized, series of peptide concentrations, three independent experiments
Description: (§4) Plasmids encoding BAKΔTM (GenBank BC004431, residues 1–186) in pET29b(+) was kindly provided by Qian Liu and Kalle Gehring (McGill University, Montreal, Canada)[34]. Plasmids encoding BAK 15–186 and the corresponding BAK mutants were generated using site-directed mutagenesis. All plasmids were subjected to automated sequencing to verify the described alterations and confirm that no additional mutations were present.
(§5) Proteins for SPR were further purified by FPLC on Superdex S200, concentrated in a centrifugal concentrator (Centricon, Millipore), dialyzed against Biacore buffer (10 mM 4-(2-hydroxyethyl)-1-piperazineethanesulfonic acid (HEPES; pH 7.4), 150 mM NaCl, 0.05 mM ethylenediaminetetraacetic acid (EDTA) and 0.005% (w/v) polysorbate 20) and stored at 4 °C for <48 h before use.
(§6) BAKΔTM or mutants were immobilized on a CM5 chip using a Biacore T200 biosensor with a blank channel as a negative control. Binding assays were performed at 25 °C using Biacore buffer containing the indicated BH3 peptides injected at 30 µl per min for 1 min using a Biacore T200 Control Software. Proteins were allowed to dissociate during perfusion with Biacore buffer at 30 µl per min for 10 min and then desorbed with 2 M MgCl2. All binding affinities were derived by Biacore T200 Evaluation Software using Steady State analysis (Biacore, Uppsala, Sweden).

BAK G126S = conditions: SPR, about 4000 RU immobilized, series of peptide concentrations, three independent experiments
Description: as §4, §5, §6

BAK F93E = conditions: SPR, about 4000 RU immobilized, series of peptide concentrations, three independent experiments
Description: as §4, §5, §6

BAK F161A = conditions: SPR, ~4000 RU immobilized, series of peptide concentrations, three independent experiments
Description: as §4, §5, §6

BAKΔTM = biological target: T1, BAKΔTM (Homo sapiens, UniProt Q16611); test: SPR binding of BH3 peptides to immobilized BAKΔTM; conditions: for Kd: BAKΔTM immobilized on CM5 chip, steady-state analysis, three independent SPR assays, top concentrations not threefold above KD, read-out: Approximate dissociation constant ranges, KDs for BAK
T1 construct: BAKΔTM (GenBank BC004431, residues 1–186); His6; made in house; host or cells: E. coli BL21
T1 sequence (Q16611 1-186): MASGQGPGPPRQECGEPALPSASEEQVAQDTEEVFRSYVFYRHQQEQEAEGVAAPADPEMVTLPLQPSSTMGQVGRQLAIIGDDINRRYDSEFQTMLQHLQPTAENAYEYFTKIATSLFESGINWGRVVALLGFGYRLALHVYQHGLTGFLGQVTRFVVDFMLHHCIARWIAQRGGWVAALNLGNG

BAKΔTM F161A = test: Liposome permeabilization assay with BAKΔTM F161A; type: biochemical, human; conditions: 50 nM BAKΔTM F161A vs WT, 50 nM BH3 peptide, three independent experiments
Protocol: as §1, §2

[1] = system: Bak in mitochondria from Bax−/− MEFs; test: Cytochrome c release from mitochondria of Bax−/− MEFs; type: biochemical, mouse
Protocol: as §3

[2] = 90 min at 25 °C, immunoblotting of supernatants and pellets

CC[C@H](C)[C@H](NC(=O)[C@H](CS)NC(=O)[C@H](CCC(N)=O)NC(=O)[C@H](CC(C)C)NC(=O)[C@H](CCCCN)NC(=O)[C@H](CCCNC(=N)N)NC(=O)[C@H](C)NC(=O)[C@@H](NC(=O)[C@H](CCC(N)=O)NC(=O)[C@@H](NC(=O)[C@H](CCC(=O)O)NC(=O)[C@H](C)NC(=O)[C@@H](N)CCC(N)=O)C(C)C)[C@@H](C)CC)C(=O)N[C@@H](C)C(=O)N[C@@H](CC(=O)O)C(=O)N[C@@H](CCC(N)=O)C(=O)N[C@@H](Cc1ccccc1)C(=O)N[C@@H](Cc1c[nH]cn1)C(=O)N[C@@H](CCCNC(=N)N)C(=O)N[C@@H](CC(C)C)C(=O)N[C@@H](Cc1c[nH]cn1)C(=O)N[C@H](C(=O)N[C@@H](CCC(N)=O)C(=O)N[C@@H](CCC(N)=O)C(=O)N[C@@H](Cc1c[nH]cn1)C(=O)N[C@@H](CCC(N)=O)C(=O)O)C(C)C [BMF BH3] (H-QAEVQIARKLQCIADQFHRLHVQQHQ-OH; N-terminus and C-terminus assumed)
BAK-dependent release of liposome contents (FITC-dextran release) (BAK (His6-BAKΔTM); 37 °C, fluorescence dequenching, BAK alone 28%, mean of three independent experiments): 46% | Cytochrome c release, in words (human BAKΔTM): intermediate amount | Effect of BAK H164A/H165A mutation on peptide binding (maximum RU) vs WT BAKΔTM (BAK H164A/H165A): diminished binding | Effect of BAK G126S mutation on peptide binding (maximum RU) vs WT BAKΔTM (BAK G126S): did not appreciably affect binding | Effect of BAK F93E mutation on peptide binding (maximum RU) vs WT BAKΔTM (BAK F93E): did not appreciably affect binding | Effect of BAK F161A mutation on peptide binding (maximum RU) vs WT BAKΔTM (BAK F161A): diminished binding | Kd (BAKΔTM; SPR, 25 °C): 400 to 600 nM and < 1000 nM | Association and dissociation, direct comparison of SPR curves (BAKΔTM; peptides at 1600 nM, immobilized BAKΔTM): fastest association with BAKΔTM and slowest dissociation | Effect of F161A mutation on BAK-mediated liposome permeabilization initiated by the peptide (BAKΔTM F161A): markedly decreased

Cc1c(-c2c(-c3ccc(F)o3)sc3ncnc(O[C@H](Cc4ccccc4OCc4ccnn4CC(F)(F)F)C(=O)O)c23)ccc(OCCN2CCN(C)CC2)c1Cl [S63845]
Cytochrome c release, in words [1, 2]: failed to induce cytochrome c release

CC[C@H](C)[C@H](NC(=O)[C@H](CS)NC(=O)[C@H](C)NC(=O)[C@H](CC(C)C)NC(=O)[C@H](CCCNC(=N)N)NC(=O)[C@H](CC(C)C)NC(=O)[C@H](C)NC(=O)[C@H](CC(C)C)NC(=O)[C@H](C)NC(=O)[C@H](CC(=O)O)NC(=O)[C@H](CO)NC(=O)CNC(=O)[C@@H](N)CCC(=O)O)C(=O)NCC(=O)N[C@@H](CC(=O)O)C(=O)N[C@@H](CCC(=O)O)C(=O)N[C@@H](CCSC)C(=O)N[C@@H](CC(=O)O)C(=O)N[C@H](C(=O)N[C@@H](CO)C(=O)N[C@@H](CC(C)C)C(=O)N[C@@H](CCCNC(=N)N)C(=O)N[C@@H](C)C(=O)N1CCC[C@H]1C(=O)N[C@@H](CCCNC(=N)N)C(=O)O)C(C)C [BIK BH3] (H-EGSDALALRLACIGDEMDVSLRAPR-OH; N-terminus and C-terminus assumed)
Increase of BAK-mediated liposome release, in words (BAK (His6-BAKΔTM)): did not appreciably increase | Cytochrome c release, in words (human BAKΔTM): barely induced cytochrome c release | Kd (BAKΔTM; SPR, 25 °C): > 10000 nM | Binding to BAKΔTM by SPR, in words (BAKΔTM; SPR, immobilized BAKΔTM, 25 °C): did not detect interactions; also recorded: undetectable | Concentration that induced cytochrome c release ([1]; 90 min at 25 °C, immunoblotting of supernatants and pellets, 10 μM highest concentration tested): 10 µM | Fold less active than the HRK BH3 peptide in cytochrome c release ([1]; MCL1 inhibitor S63845 added together with peptide, response to reviewers): about 10 fold

CC1(C)CCC(c2ccc(Cl)cc2)=C(CN2CCN(c3ccc(C(=O)NS(=O)(=O)c4ccc(N[C@H](CCN5CCOCC5)CSc5ccccc5)c(S(=O)(=O)C(F)(F)F)c4)cc3)CC2)C1 [navitoclax]
Cytochrome c release, in words [1, 2]: failed to induce cytochrome c release | Effect on BIK or HRK BH3-induced cytochrome c release ([1]; navitoclax applied along with BIK BH3 or HRK BH3): did not enhance

CC[C@H](C)[C@H](NC(=O)[C@H](CCC(=O)O)NC(=O)[C@H](CCCNC(=N)N)NC(=O)[C@H](C)NC(=O)[C@H](Cc1c[nH]c2ccccc12)NC(=O)[C@@H](N)CCC(N)=O)C(=O)NCC(=O)N[C@@H](C)C(=O)N[C@@H](CCC(N)=O)C(=O)N[C@@H](CC(C)C)C(=O)N[C@@H](CCCNC(=N)N)C(=O)N[C@@H](CCCNC(=N)N)C(=O)N[C@@H](CCSC)C(=O)N[C@@H](C)C(=O)N[C@@H](CC(=O)O)C(=O)N[C@@H](CC(=O)O)C(=O)N[C@@H](CC(C)C)C(=O)N[C@@H](CC(N)=O)C(=O)N[C@@H](C)C(=O)N[C@@H](CCC(N)=O)C(=O)N[C@@H](Cc1ccc(O)cc1)C(=O)N[C@@H](CCC(=O)O)C(=O)N[C@@H](CCCNC(=N)N)C(=O)N[C@@H](CCCNC(=N)N)C(=O)N[C@@H](CCCNC(=N)N)C(=O)N[C@@H](CCC(N)=O)C(=O)O [PUMA BH3, reference compound]
Kd (BAKΔTM; SPR, 25 °C): 2000 to 2800 nM | Effect of F161A mutation on BAK-mediated liposome permeabilization initiated by the peptide (BAKΔTM F161A): did not affect
